Results: US20230364118A1, “RIBITOL TREATMENT” (priority 2020, published 2023)
“Also recorded” adds a separate entry of the source.

Tests used:
[1] = 7-day repeat-dose oral toxicokinetics; format: in vivo, Bama minipig; settings: for Tmax / Cmax / AUC(0-t): Bama, minipig, plasma; for AUC(0-t): read-out: AUC0-24
Description: Toxicokinetics were evaluated as part of a 7-day oral repeat-dose dose range finding study in Bama minipigs. […] On Days 1 and 7, blood was taken for plasma TK at 0 (pre first dose), 0.5, 1, 2, 4, 6 (pre-second dose), 6.5, 7, 8, 10, and 24 hours post-first dose.

[2] = 28-day repeat-dose oral toxicokinetics; format: in vivo, Bama minipig
Description: Toxicokinetics of ribitol was evaluated as part of the 28-day toxicology study in male and female Bama minipig. […] Animals in control group were dosed for 28 days twice daily with the vehicle only (Purified Water). On Days 1 and 28, blood samples were collected at 0 (pre first dose), 0.5, 1, 2, 4, 6 (pre-second dose), 6.5, 7, 8, 10, 12, and 24 hours from all available animals.

[3] = female, po, 0.1 g/kg, 0.1 g/kg BID, Day 1, F
[4] = female, po, 0.1 g/kg, 0.1 g/kg BID, Day 7, F
[5] = female, po, 0.3 g/kg, 0.3 g/kg BID, Day 1, F
[6] = female, po, 0.3 g/kg, 0.3 g/kg BID, Day 7, F
[7] = female, po, 1 g/kg, 1.0 g/kg BID, Day 1, F
[8] = female, po, 1 g/kg, 1.0 g/kg BID, Day 7, F
[9] = male, po, 0.1 g/kg, 0.1 g/kg BID, Day 1, M
[10] = male, po, 0.1 g/kg, 0.1 g/kg BID, Day 7, M
[11] = male, po, 0.3 g/kg, 0.3 g/kg BID, Day 1, M
[12] = male, po, 0.3 g/kg, 0.3 g/kg BID, Day 7, M
[13] = male, po, 1 g/kg, 1.0 g/kg BID, Day 1, M
[14] = male, po, 1 g/kg, 1.0 g/kg BID, Day 7, M
[15] = 1.0 g/kg/dose BID (2.0 g/kg/day, NOAEL), Day 28, Female
[16] = 1.0 g/kg/dose BID (2.0 g/kg/day, NOAEL), Day 28, Male

OC[C@@H](O)[C@@H](O)[C@@H](O)CO [ribitol, (2R,3s,4S)-Pentane-1,2,3,4,5-pentol]
drug accumulation ([1]; 7 days, up to 1.0 g/kg/dose BID): no apparent accumulation
Tmax ([1]; both sexes, oral, post first dose, Days 1 and 7, range): 0.5 to 6.5 h
Cmax [1, 3]: 53.1 µg/mL
Tmax [1, 3]: 3.8 h
AUC(0-t) [1, 3]: 284 µg·h/mL
Cmax [1, 4]: 40.2 µg/mL
Tmax [1, 4]: 0.8 h
AUC(0-t) [1, 4]: 317 µg·h/mL
Cmax [1, 5]: 112 µg/mL
Tmax [1, 5]: 0.8 h
AUC(0-t) [1, 5]: 676 µg·h/mL
Cmax [1, 6]: 159 µg/mL
Tmax [1, 6]: 0.5 h
AUC(0-t) [1, 6]: 784 µg·h/mL
Cmax [1, 7]: 299 µg/mL
Tmax [1, 7]: 1.3 h
AUC(0-t) [1, 7]: 1750 µg·h/mL
Cmax [1, 8]: 331 µg/mL
Tmax [1, 8]: 1.3 h
AUC(0-t) [1, 8]: 1870 µg·h/mL
Cmax [1, 9]: 35.5 µg/mL
Tmax [1, 9]: 3.5 h
AUC(0-t) [1, 9]: 160 µg·h/mL
Cmax [1, 10]: 45.1 µg/mL
Tmax [1, 10]: 3.5 h
AUC(0-t) [1, 10]: 183 µg·h/mL
Cmax [1, 11]: 117 µg/mL
Tmax [1, 11]: 6.5 h
AUC(0-t) [1, 11]: 504 µg·h/mL
Cmax [1, 12]: 58.3 µg/mL
Tmax [1, 12]: 0.5 h
AUC(0-t) [1, 12]: 438 µg·h/mL
Cmax [1, 13]: 308 µg/mL
Tmax [1, 13]: 3.8 h
AUC(0-t) [1, 13]: 169 µg·h/mL
Cmax [1, 14]: 283 µg/mL
Tmax [1, 14]: 1.3 h
AUC(0-t) [1, 14]: 1920 µg·h/mL
AUC0-24 [2, 15]: 1980 ± 1040 µg·h/mL
Cmax [2, 15]: 281 ± 141 µg/mL
AUC0-24 [2, 16]: 2560 ± 526 µg·h/mL
Cmax [2, 16]: 475 ± 97.7 µg/mL
drug accumulation ([2]; after 28-day repeated oral administration, any dose level): no marked drug accumulation; also recorded: no apparent ribitol drug accumulation
Tmax ([2]; both sexes, Bama, minipig, plasma, oral, post dose and post second dose, Day 1 or Day 28, range): 0.5 to 2 h
AUC(0-t) ([2]; female, Bama, minipig, plasma, po, 0.1 g/kg, 0.1 g/kg/dose BID, Day 1, Female, mean ± SD, read-out: AUC0-24): 268 ± 129 µg·h/mL
Cmax ([2]; female, Bama, minipig, plasma, po, 0.1 g/kg, 0.1 g/kg/dose BID, Day 1, Female, mean ± SD, read-out: Cmax): 39.6 ± 23.3 µg/mL
Tmax ([2]; female, Bama, minipig, plasma, po, 0.1 g/kg, 0.1 g/kg/dose BID, Day 1, Female, median (range)): 5 h
